Our source for the Activity values is ChEMBL document CHEMBL5715954, “Silencing c-Myc translation as a therapeutic strategy through targeting PI3Kδ and CK1ε in hematological malignancies” (Blood, 2017).

Molecules are shown by their SMILES.

Holding throughout (parameters): scale not given: the % may be the effect or the level left
The target in experiment [1] is Serine/threonine-protein kinase N2 (Homo sapiens) (UniProt Q16513). The experiment is described as follows: Inhibition of human PKN2 assessed as enzyme activity at 1 uM using KKLNRTLSVA as substrate preincubated for 20 mins followed by [gamma-33P]-ATP addition and measured after 120 mins by radiometric Hot-SpotSM Kinase assay relative to control.
Experiment [2] addresses T1, Mitogen-activated protein kinase 15 (Homo sapiens) (UniProt Q8TD08).
T1 sequence (whole entry): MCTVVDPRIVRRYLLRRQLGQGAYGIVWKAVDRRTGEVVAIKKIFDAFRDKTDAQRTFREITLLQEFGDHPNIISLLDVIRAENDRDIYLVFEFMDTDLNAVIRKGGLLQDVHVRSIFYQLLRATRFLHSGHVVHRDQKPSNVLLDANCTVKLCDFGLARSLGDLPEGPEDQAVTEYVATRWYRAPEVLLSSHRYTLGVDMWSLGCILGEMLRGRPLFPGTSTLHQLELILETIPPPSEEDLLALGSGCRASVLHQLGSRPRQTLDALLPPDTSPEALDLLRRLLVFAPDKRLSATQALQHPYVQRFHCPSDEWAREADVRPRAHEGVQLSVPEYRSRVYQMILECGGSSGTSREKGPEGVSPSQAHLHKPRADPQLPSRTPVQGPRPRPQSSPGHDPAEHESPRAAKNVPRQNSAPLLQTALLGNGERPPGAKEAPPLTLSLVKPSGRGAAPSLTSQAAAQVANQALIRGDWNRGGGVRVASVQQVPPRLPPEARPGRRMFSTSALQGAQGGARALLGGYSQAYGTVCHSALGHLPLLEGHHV
The experiment is described as follows: Inhibition of human ERK7 assessed as enzyme activity at 1 uM using myelin basic protein as substrate preincubated for 20 mins followed by [gamma-33P]-ATP addition and measured after 120 mins by radiometric Hot-SpotSM Kinase assay relative to control.

Experiment [3] addresses Serine/threonine-protein kinase PAK 1 (Homo sapiens) (UniProt Q13153). The experiment is described as follows: Inhibition of human PAK1 assessed as enzyme activity at 1 uM using RRRLSFAEPG as substrate preincubated for 20 mins followed by [gamma-33P]-ATP addition and measured after 120 mins by radiometric Hot-SpotSM Kinase assay relative to control.
Experiment [4] concerns the target T2, Rhodopsin kinase GRK1 (Homo sapiens) (UniProt Q15835).
T2 sequence (whole entry): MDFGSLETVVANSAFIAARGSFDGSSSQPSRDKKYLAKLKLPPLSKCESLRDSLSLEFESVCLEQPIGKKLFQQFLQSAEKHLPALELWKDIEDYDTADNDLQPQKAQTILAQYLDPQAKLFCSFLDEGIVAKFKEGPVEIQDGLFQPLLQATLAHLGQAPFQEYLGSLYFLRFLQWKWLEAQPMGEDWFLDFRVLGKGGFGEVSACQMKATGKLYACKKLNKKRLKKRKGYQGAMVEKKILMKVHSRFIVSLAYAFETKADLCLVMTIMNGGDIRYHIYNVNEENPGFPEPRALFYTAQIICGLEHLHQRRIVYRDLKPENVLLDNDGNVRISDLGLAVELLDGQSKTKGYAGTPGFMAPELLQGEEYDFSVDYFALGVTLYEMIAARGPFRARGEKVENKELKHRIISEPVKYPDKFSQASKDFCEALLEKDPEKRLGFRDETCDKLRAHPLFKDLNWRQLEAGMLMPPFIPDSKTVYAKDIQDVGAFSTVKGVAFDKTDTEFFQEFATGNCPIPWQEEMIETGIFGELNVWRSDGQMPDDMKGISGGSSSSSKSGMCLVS
The experiment is described as follows: Inhibition of human GRK1 assessed as enzyme activity at 1 uM using casein as substrate preincubated for 20 mins followed by [gamma-33P]-ATP addition and measured after 120 mins by radiometric Hot-SpotSM Kinase assay relative to control.

Experiment [5] deals with Tyrosine-protein kinase SYK (Homo sapiens) (UniProt P43405). The experiment is described as follows: Inhibition of human SYK assessed as enzyme activity at 1 uM using poly[Glu:Tyr] (4:1) as substrate preincubated for 20 mins followed by [gamma-33P]-ATP addition and measured after 120 mins by radiometric Hot-SpotSM Kinase assay relative to control.
Experiment [6] concerns the target Ribosomal protein S6 kinase beta-2 (Homo sapiens) (UniProt Q9UBS0). The experiment is described as follows: Inhibition of human p70S6Kb assessed as enzyme activity at 1 uM using KKRNRTLTK as substrate preincubated for 20 mins followed by [gamma-33P]-ATP addition and measured after 120 mins by radiometric Hot-SpotSM Kinase assay relative to control.
Experiment [7] has as its target T3, Serine/threonine-protein kinase PLK4 (Homo sapiens) (UniProt O00444).
T3 sequence (whole entry): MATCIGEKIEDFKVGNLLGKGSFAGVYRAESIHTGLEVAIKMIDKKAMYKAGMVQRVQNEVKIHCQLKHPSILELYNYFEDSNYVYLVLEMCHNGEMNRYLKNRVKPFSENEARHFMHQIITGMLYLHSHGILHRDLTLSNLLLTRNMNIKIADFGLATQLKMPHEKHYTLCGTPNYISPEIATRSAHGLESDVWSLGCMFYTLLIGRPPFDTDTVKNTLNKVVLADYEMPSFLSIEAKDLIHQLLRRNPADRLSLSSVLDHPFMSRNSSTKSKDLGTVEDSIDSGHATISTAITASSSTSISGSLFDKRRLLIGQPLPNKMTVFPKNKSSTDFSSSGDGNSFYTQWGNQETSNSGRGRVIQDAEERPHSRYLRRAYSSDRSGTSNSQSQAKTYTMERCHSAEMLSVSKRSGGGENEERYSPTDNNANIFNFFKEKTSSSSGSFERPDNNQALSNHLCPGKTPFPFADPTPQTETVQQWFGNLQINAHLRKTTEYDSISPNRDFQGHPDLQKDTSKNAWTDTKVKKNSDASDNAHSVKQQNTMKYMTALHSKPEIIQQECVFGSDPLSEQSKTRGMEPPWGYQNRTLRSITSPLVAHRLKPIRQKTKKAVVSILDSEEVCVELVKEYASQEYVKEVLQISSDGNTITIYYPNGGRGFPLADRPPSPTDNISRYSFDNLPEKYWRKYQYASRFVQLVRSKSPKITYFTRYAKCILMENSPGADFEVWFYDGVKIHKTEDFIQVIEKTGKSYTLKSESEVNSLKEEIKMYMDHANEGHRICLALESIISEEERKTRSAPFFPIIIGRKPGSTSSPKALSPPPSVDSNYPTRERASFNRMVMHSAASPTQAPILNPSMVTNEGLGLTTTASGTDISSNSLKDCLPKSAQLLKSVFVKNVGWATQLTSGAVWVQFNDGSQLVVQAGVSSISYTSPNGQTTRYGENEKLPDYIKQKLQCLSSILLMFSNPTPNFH
The experiment is described as follows: Inhibition of human PLK4 assessed as enzyme activity at 1 uM using casein as substrate preincubated for 20 mins followed by [gamma-33P]-ATP addition and measured after 120 mins by radiometric Hot-SpotSM Kinase assay relative to control.

Experiment [8] has as its target Protein kinase C eta type (Homo sapiens) (UniProt P24723). The experiment is described as follows: Inhibition of human PKCeta assessed as enzyme activity at 1 uM using ERMRPRKRQGSVRRRV as substrate preincubated for 20 mins followed by [gamma-33P]-ATP addition and measured after 120 mins by radiometric Hot-SpotSM Kinase assay relative to control.

Sequence of Ribosomal protein S6 kinase beta-2 (Homo sapiens) (Q9UBS0 whole entry): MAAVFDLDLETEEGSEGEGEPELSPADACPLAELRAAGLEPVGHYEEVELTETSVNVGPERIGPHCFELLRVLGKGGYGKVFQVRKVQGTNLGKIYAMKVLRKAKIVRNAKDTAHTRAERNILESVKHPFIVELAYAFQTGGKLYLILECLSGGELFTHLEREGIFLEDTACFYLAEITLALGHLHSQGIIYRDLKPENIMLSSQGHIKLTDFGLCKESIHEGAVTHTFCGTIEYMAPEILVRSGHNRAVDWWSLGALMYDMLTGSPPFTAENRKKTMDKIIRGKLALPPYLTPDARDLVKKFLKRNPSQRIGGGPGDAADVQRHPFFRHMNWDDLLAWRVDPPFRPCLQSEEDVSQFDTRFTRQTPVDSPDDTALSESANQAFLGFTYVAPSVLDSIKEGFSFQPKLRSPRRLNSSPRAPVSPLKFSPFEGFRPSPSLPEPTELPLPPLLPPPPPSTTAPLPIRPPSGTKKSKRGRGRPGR
Sequence of Protein kinase C eta type (Homo sapiens) (P24723 whole entry): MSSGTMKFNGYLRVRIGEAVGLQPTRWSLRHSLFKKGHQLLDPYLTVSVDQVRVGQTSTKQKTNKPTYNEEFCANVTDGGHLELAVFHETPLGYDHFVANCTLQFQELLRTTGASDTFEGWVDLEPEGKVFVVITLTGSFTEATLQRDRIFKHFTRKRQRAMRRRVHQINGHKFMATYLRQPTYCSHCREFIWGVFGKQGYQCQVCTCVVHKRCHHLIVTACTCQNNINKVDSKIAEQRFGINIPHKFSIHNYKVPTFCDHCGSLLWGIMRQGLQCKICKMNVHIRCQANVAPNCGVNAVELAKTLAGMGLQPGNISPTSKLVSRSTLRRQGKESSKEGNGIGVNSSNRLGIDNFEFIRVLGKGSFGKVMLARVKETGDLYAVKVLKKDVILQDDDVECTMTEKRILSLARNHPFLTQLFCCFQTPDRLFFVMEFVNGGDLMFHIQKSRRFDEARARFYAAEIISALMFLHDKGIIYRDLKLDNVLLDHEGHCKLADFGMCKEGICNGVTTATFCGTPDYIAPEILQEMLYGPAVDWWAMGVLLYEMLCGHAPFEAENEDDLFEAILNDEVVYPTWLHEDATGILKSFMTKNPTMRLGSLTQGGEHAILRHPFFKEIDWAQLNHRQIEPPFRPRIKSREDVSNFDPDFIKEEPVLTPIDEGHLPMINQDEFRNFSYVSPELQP
Sequence of Serine/threonine-protein kinase N2 (Homo sapiens) (Q16513 whole entry, looked up): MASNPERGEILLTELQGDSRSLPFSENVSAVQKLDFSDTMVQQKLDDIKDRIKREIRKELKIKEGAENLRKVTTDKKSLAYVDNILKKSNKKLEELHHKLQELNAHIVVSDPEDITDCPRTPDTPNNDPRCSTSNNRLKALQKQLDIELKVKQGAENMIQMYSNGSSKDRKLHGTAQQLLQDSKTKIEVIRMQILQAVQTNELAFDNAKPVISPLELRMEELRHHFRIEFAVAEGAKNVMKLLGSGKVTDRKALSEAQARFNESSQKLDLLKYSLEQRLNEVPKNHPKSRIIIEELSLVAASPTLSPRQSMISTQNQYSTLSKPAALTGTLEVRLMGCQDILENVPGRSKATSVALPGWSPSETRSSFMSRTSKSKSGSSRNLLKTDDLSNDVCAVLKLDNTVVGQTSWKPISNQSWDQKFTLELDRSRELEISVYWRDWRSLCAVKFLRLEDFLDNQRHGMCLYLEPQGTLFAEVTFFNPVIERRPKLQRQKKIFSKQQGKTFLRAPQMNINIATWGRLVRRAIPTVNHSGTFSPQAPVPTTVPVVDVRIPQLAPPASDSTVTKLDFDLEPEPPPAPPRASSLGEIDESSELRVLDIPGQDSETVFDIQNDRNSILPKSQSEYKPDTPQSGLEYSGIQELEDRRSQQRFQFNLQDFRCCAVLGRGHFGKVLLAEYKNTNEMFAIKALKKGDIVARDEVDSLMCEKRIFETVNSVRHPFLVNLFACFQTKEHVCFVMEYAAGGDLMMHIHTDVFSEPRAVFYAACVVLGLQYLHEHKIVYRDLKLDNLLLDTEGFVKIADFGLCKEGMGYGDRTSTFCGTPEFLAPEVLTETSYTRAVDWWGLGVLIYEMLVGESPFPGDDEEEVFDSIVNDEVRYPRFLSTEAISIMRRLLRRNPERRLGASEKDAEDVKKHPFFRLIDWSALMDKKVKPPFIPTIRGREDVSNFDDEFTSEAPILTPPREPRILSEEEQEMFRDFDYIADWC
Sequence of Serine/threonine-protein kinase PAK 1 (Homo sapiens) (Q13153 whole entry): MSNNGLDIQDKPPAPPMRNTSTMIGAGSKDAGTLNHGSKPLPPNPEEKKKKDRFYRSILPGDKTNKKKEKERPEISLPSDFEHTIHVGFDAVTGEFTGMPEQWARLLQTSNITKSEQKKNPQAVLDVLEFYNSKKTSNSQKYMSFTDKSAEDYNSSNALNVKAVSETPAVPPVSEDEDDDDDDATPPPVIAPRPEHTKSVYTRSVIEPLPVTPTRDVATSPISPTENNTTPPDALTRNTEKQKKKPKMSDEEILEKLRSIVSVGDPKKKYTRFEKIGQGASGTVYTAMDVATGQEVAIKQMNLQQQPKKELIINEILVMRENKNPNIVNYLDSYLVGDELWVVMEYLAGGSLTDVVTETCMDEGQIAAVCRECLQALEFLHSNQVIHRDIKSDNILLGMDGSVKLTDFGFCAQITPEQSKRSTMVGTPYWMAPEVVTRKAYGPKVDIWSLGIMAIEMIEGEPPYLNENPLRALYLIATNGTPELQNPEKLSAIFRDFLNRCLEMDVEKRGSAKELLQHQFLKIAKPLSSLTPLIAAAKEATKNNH

As to `C[C@H](Nc1ncnc2nc[nH]c12)c1cc2cccc(Cl)c2c(=O)n1-c1ccccc1`, the Activity in experiment [1] is 84.5%; in experiment [2] it was 98.5%; in experiment [3], 97.5%; in experiment [4] it was 102%; in experiment [5] it was 100%; in experiment [6], 96.8%. The results for the Activity in experiment [7] and in experiment [8] were 91% and 87.7%, respectively.

`CC[C@H](Nc1ncnc2[nH]cnc12)c1nc2cccc(F)c2c(=O)n1-c1ccccc1`: the Activity was determined as 84.7% in experiment [1]; 94.3% in experiment [2]; 98.7% in experiment [3]; 104% in experiment [4]; 103% in experiment [5]; 104% in experiment [6]. Further, the Activity in experiment [7] was 99.9%; in experiment [8] it was 88.5%.

As for `CC(C)Oc1ccc(-c2nn([C@@H](C)c3oc4ccc(F)cc4c(=O)c3-c3cccc(F)c3)c3ncnc(N)c23)cc1F` [UMBRALISIB], the Activity in experiment [1] came out at 84.4%; in experiment [2], 88.3%; in experiment [3] it was 98.2%; in experiment [4], 98.7%; in experiment [5] it was 102%; in experiment [6], 105%. In addition, the Activity in experiment [7] worked out at 102%; in experiment [8], 88.4%.
